Reference: US12433882B2, “Treatments for amyotrophic lateral sclerosis using dazucorilant” (Corcept Therapeutics Incorporated, priority 2022, dated 2025)
Entries after “also recorded” stand apart in the source; their conditions may differ.

Columns and labels:
[1] = target: T1, progesterone receptor (PR) (Homo sapiens, UniProt P06401); test: Progesterone receptor binding; conditions: 10 μM
T1 sequence (P06401 1-933): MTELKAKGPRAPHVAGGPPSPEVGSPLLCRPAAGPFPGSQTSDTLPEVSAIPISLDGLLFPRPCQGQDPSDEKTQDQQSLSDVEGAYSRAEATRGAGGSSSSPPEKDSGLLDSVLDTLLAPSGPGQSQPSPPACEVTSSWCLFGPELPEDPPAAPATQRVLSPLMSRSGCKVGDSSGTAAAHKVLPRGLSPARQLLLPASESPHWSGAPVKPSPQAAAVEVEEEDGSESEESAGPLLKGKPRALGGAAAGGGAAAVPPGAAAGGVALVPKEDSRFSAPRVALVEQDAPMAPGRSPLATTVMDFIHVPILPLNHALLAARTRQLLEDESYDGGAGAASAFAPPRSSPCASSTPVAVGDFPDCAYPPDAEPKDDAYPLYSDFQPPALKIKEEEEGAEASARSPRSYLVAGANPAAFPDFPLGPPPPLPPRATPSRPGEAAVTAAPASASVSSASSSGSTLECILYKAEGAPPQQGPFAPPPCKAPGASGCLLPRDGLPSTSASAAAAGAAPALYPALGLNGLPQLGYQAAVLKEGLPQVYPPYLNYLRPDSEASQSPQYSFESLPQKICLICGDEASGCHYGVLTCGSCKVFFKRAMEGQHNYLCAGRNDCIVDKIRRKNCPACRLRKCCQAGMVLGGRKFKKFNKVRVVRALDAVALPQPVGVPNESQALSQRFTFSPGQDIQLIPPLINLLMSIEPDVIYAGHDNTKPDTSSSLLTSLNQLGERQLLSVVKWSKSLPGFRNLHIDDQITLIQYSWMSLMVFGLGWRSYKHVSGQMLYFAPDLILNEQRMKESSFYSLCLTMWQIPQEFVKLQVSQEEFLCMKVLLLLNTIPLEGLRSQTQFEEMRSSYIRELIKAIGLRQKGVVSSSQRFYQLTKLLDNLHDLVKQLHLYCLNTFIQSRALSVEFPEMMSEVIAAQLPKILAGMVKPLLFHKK

[2] = test system: Wobbler mouse; test: Wobbler mouse model of ALS; format: in vivo; conditions: administration for 21 days
[3] = Brain penetration study, multiple oral dose PK in plasma and CSF; format: in vivo, human
Method: An adaptive dose, double-blind, placebo-controlled study (NCT04249323, EudraCT 2019-004258-27) was conducted in 110 healthy male and female volunteers (18-60 years old; BMI 18-30 kg/m2; weight≤102 kg; “First In Human” (FIH) study).

O=C(c1ccccn1)[C@]12Cc3cnn(-c4ccc(F)cc4)c3C=C1CCN(S(=O)(=O)c1ccc(C(F)(F)F)cc1)C2 [dazucorilant, (R)-(1-(4-fluorophenyl)-6-((4-(trifluoromethyl)phenyl)sulfonyl)-4,4a, 5,6,7,8-hexahydro-1-H-pyrazolo[3,4-g]isoquinolin-4a-yl) (pyridin-2-yl)methanone]
binding to progesterone receptor [1]: 0%
forepaw atrophy [2]: reducing forepaw atrophy
neurodegeneration and inflammation [2]: inhibiting neurodegeneration and inflammation
performance in the rotarod test [2]: overcoming the impaired performance in the rotarod test
dose proportionality of exposures ([3]; 300 mg relative to 150 mg, daily for 14 days): greater than dose-proportional increase in dazucorilant exposures
detection in the CSF ([3]; 1 week of QD dosing, 150 mg and 300 mg, fed): detectable in the CSF in all study participants
time to steady state of exposure ([3]; QD dosing): ≤ 1 week
distribution to the cerebrospinal fluid (CSF) ([3]; oral administration, healthy volunteers): distribution of dazucorilant is observed in the cerebrospinal fluid; also recorded: distribution to the CSF was observed
steady state exposures (Cmax, AUC0-24), 300 vs. 150 mg ([3]; steady state, QD dosing): approximately 4 fold
